Laboratory results from patent US20070082819A1 (priority 2003, published 2007).

Test system: eight representative weed species
Conditions: in vivo

For `CCCC[N+](CCCC)(CCCC)CCCC.[Br-]` [Tetrabutylammonium hyrobromide, tetrabutylammonium bromide], the “Mean Activity (%)” value was 72%.
